According to publication PMC5893557, “Small tumor necrosis factor receptor biologics inhibit the tumor necrosis factor-p38 signalling axis and inflammation” (Nature Communications, 2018):
Where two headings read alike, the source gives them in different places. Residues, ends and D or L forms follow the SMILES beside them. No end group written: not given here.

What was measured:
[1] = system: macrophage; conditions: ability to stimulate nitric oxide production in macrophage; cited from earlier work
From the text: The modification extended the serum half-life ...

[2] = system: human neutrophils; test: TNF70–80-induced lucigenin-dependent chemiluminescence (superoxide) in neutrophils; assay type: cell-based
Method: (§1) Neutrophil superoxide production was measured by an indirect assay involving the reduction of the lucigenin, (9, 9′-bis N-methyl-acridinium nitrate) (Sigma-Aldrich, Castle Hill, NSW, Australia) and measuring the light output by lucigenin-dependant chemiluminescence. […] After incubation, 500 μl of lucigenin (250 μM, final) was added and the final volume was adjusted to 1 ml. The cells were placed in luminometer (Autolumat Plus Model LB 953, Berthold Technologies, Bundoora, VIC, Australia) and the resulting chemiluminescence (in relative light units, RLU) measured. The results are expressed as maximal/peak rate of chemiluminescence produced unless specified otherwise. CR3 expression on neutrophils was measured by flow cytometry using anti-CD11b antibodies. […] After treatment, 2 μl of PE-labelled mouse IgG2a isotype control (Clone X39) or PE-labelled monoclonal anti-CD11b antibody (Clone D12) (both from BD Biosciences, North Ryde, NSW, Australia) was added to neutrophils in 200 μl of Isoton II (BD Biosciences) supplemented with 0.1% (w/v) BSA. After 30 min the cells were washed, fixed with formaldehyde (0.1%) and analysed on a FACScan (BD Biosciences, North Ryde, NSW, Australia). Cytokine (IL-1β and IL-8) mRNA productions were measured by quantitative RT-PCR. Briefly, total RNA was extracted from 1 × 10^6 neutrophils using the TRIzol reagent (Life Technologies Australia Pty, Mulgrave, VIC, Australia) according to the manufacturer’s instructions. RNA was converted to cDNA using iScript cDNA synthesis kit (Bio-rad, Hercules, CA, USA).

[3] = system: p38 activity in 70Z/3 pre-B cells; test: p38 activity in 70Z/3 pre-B cells, mock- or TNFRI (WT/mutant)-transfected; assay type: cell-based, mouse
Method: The study was approved by the CYWHS Human Ethics Committee (project number HREC 595/12/10). Neutrophils were prepared from peripheral blood of healthy donors, who had given informed consent, by a rapid single-step technique. Blood was layered on to Hypaque-Ficoll (Pharmacia Biotech., Uppsala, Sweden), d = 1.114, and centrifuged at 600 × g for 20–30 min. After centrifugation, the leukocytes resolved into two bands and the neutrophils were harvested from the second band. The preparations of neutrophils were routinely of >99% viability and >98% purity. These were either used as cells in suspension or as adhered neutrophils by adding the cells to plasma-coated plates as previously described. The 70Z/3 pre-B cell line, kindly provided by Dr. W. Langdon, University of Western Australia, Perth, Australia, are mouse pre-B lymphocytes which lack binding sites for human TNF and are non-responsive to the cytokine[18],[19]. The cells were maintained in RPMI 1640 medium with 4.5 g/L glucose, 2 mM L-glutamine, […] 2-mercaptoethanol and 10% FCS in an atmosphere of 95% air and 5% CO2. The monocytic cell line, MonoMac 6 was kindly provided by Dr. H.W.L. Ziegler-Heitbrock (Institute of Clinical Chemistry and Pathobiochemistry, Klinikum rechts der Isar, Technische Universitat, Munchen, Germany) and maintained in RPMI 1640 supplemented with 10% heat-inactivated foetal calf serum, 1 mM pyruvate, glutamine and antibiotics. A mouse fibroblastic fibrosarcoma cell line WEHI-164, clone 13 (from the ATCC) was obtained from Dr. Geeta Chauhdri (John Curtain School of Medical Research, Australian National University, Canberra, Australia). The cells were maintained in RPMI-1640 medium as above and the cells were detached with 0.25% trypsin EDTA. HEK 293T cells were maintained in DMEM, supplemented with 10% foetal calf serum. […]
(§2) p38 activity was determined, after immunoprecipitation, as described using myelin basic protein (MPB) as a substrate for the kinase in the presence of ^32P-ATP[35]. […]

[4] = system: p38 MAPK; test: p38 activation in neutrophils treated with TNF70–80; assay type: cell-based, human; conditions: neutrophils incubated 15 min with peptide
Method: (§3) The study was approved by the CYWHS Human Ethics Committee (project number HREC 595/12/10). Neutrophils were prepared from peripheral blood of healthy donors, who had given informed consent, by a rapid single-step technique. Blood was layered on to Hypaque-Ficoll (Pharmacia Biotech., Uppsala, Sweden), d = 1.114, and centrifuged at 600 × g for 20–30 min. After centrifugation, the leukocytes resolved into two bands and the neutrophils were harvested from the second band. The preparations of neutrophils were routinely of >99% viability and >98% purity. These were either used as cells in suspension or as adhered neutrophils by adding the cells to plasma-coated plates as previously described. The 70Z/3 pre-B cell line, kindly provided by Dr. W. Langdon, University of Western Australia, Perth, Australia, are mouse pre-B lymphocytes which lack binding sites for human TNF and are non-responsive to the cytokine[18],[19]. The cells were maintained in RPMI 1640 medium with 4.5 g/L glucose, 2 mM L-glutamine, […] 2-mercaptoethanol and 10% FCS in an atmosphere of 95% air and 5% CO2. […]
as §2

[5] = Method: TNF70–80 and its control ([…]) were synthesised by Auspep Pty Ltd, (Tullamarine, VIC, Australia) and Genscript Biotech (Piscataway, NJ, USA). […] The sequence from the natural TNF-α was modified by substitution of isoleucine for leucine at residue 79. […] Fresh dilutions of the peptide were prepared daily in HBSS or HBSS with 1% BSA. The His-tagged M4 (HM4) ∆HM4 (LKPGTT) was purchased from Auspep Pty Ltd (Tullamarine, VIC, Australia). […] Peptides were stored at −20 °C and solutions were made in HBSS or RPMI prior to use.
[6] = system: p38 activity in HEK 293T cells; test: p38 activity in HEK 293T cells stably transfected with TRAF2, ∆TRAF2 or empty vector; assay type: cell-based; conditions: 10 μM
Method: as §3, §2

[7] = target: TNF-induced neutrophil CL production (Homo sapiens, UniProt P01375); conditions: read-out: IC50, inhibition of TNF-induced CL production; TNF (1 ng/ml) pre-treated with peptide for 30 min, human neutrophils, lucigenin chemiluminescence
Method: as §1

[8] = system: TNF-rich medium-induced superoxide production in neutrophils; test: TNF-rich medium (RM)-induced chemiluminescence in neutrophils; assay type: cell-based, human
[9] = system: TNF; test: Solid phase binding of TNF to coated TNFRI peptide; parameters: species or system human; conditions: peptide-coated plates, 50 U TNF, biotinylated anti-TNF antibody detection
Method: Depending on the experiment, microtitre plates were coated with 100 μl/well of either 3 μg/ml TNFRI198–211 in MilliQ water or TNFRI206–211 or the corresponding scrambled peptide in carbonate-bicarbonate buffer (pH 9.6) overnight at 4 °C and blocked with 1% BSA and 0.05% Tween-20 in PBS for 1 h at 4 °C. In the TNFRI198–211-coated plates, various concentrations of biotinylated TNF70–80 or control peptide were added to triplicate wells and incubated for 3 h at 4 °C. In the TNFRI206–211/scrambled peptide-coated plates, 50 U of TNF was added to triplicate wells, followed by washing with wash buffer (PBS/0.05% Tween-20) and then incubation with 50 μl of 1.5 μg/ml biotinylated monoclonal anti-TNF antibody (clone 2TNF-H33, ThermoScientific, Waltham, MA, USA). The wells from all plates were washed four times with wash buffer, then incubated with 100 μl/well of poly-horseradish peroxidase streptavidin conjugate (1/6000 dilution in 1% BSA and 0.05% Tween-20 in PBS) (ThermoScientific, Waltham, MA, USA) for 45 min at 4 °C. Wells were washed four times with wash buffer and bound enzyme detected by the addition of TMB substrate (Sigma-Aldrich, Castle Hill, NSW, Australia). Absorbance was measured using dual filter at 570/450 nm on a Dynatech MR700 Plate Reader (Guernsey, Channel Islands).

[10] = system: CD11b expression in neutrophils; test: TNF-induced CD11b (CR3) expression in neutrophils, flow cytometry; assay type: cell-based, human; conditions: TNF (5 ng/ml) pre-treated 20 min with 200 μM peptide unless otherwise specified
Method: as §1, with “Briefly, total RNA was extracted from 1 × 10^6 neutrophils using the TRIzol reagent (Life Technologies Australia Pty, Mulgrave, VIC, Australia) according to the manufacturer’s instructions. RNA was converted to cDNA using iScript cDNA synthesis kit (Bio-rad, Hercules, CA, USA).” left out

[11] = system: Ross River virus (RRV)-infected mice; conditions: cited from earlier work
From the text: Given that the TNFR peptide sequence covers the minimal region that is required for TNF to activate p38, it is likely the peptide alters the dynamics of the TNF–TNFR interaction—allowing not only TNF binding to TNFRI, but also the activation of the other signalling molecules that the receptor normally activates. This implies that other regions of TNFRI mediate the activation of the other signalli ...

[12] = target: T1, recombinant human soluble TNFRI (Homo sapiens, UniProt P19438); test: Inhibition of biotin-labelled TNF70–80 binding to immobilised soluble TNFRI; conditions: tested at 1 mM in the presence of 10 μM biotinylated TNF70–80
T1 construct: rHusTNFRI (22–211), prepared as a chimeric protein; Fc portion of human IgG1; 6x histidine; purchased ProSpec-Tany TechnoGene Ltd (Rehovot, Israel)
T1 sequence (P19438 22-211): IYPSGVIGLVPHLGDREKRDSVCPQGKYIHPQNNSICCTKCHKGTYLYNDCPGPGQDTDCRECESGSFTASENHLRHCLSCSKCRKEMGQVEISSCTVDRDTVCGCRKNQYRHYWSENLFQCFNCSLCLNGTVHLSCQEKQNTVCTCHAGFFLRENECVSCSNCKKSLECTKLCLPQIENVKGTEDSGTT
Method: Microtitre plates were coated with 100 μl/well of 3 μg/ml rHusTNFRI (ProSpec-Tany TechnoGene Ltd, Rehovot, Isreal) in 18MQ-cm H2O overnight at 4 °C and blocked with 1% BSA and 0.05% Tween-20 in PBS for 1 h at 4 °C. Aliquot of 10 μM of biotin-labelled TNF70–80 (Auspep Pty, Ltd., Tullamarine, VIC, Australia) plus various concentrations of unlabelled TNF70–80 or control peptide were added to each well and incubated for 3 h at 4 °C. The wells were washed four times with wash buffer (PBS containing 0.05% Tween-20) and the plates were incubated with 100 μl/well of poly-horseradish peroxidase streptavidin conjugate (1/6000 dilution in 1% BSA and 0.05% Tween-20 in PBS) for 45 min at 4 °C. Wells were washed four times with wash buffer and bound enzyme detected by the addition of 3′,3′,5′,5′-tetramethylbenzidine (TMB) substrate (Sigma-Aldrich, Castle Hill, NSW, Australia). Absorbance was measured using dual filter at 570/450 nm on a Dynatech MR700 Plate Reader (Guernsey, Channel Islands).

In the case of PSTHVLITHTI [TNF70–80], the “concentration that equates to 1000 U/ml of TNF” value [1] is given as 5.0 µg/mL, the “superoxide production, lucigenin-dependent chemiluminescence” value ([2]; neutrophils, chemiluminescence over 45 min) is given as “stimulated the production of superoxide in a similar manner to TNF” and the “p38 activity effect in M4 TNFRI mutant-transfected cells” value ([3]; 70Z/3 cells, M4 TNFRI mutant, 10 μM, p = 0.11, n = 3) is given as “retained, albeit appearing reduced”. The “increase in p38 activity” value ([3]; WT TNFRI- and M1 TNFR1-transfected 70Z/3 cells, 10 μM, 5 min, three experiments) was ~ 2.5 fold, the “p38 activity in 70Z/3 pre-B cells lacking TNFRs” value ([3]; untransfected (mock) cells) was “failed to stimulate the activity of p38” and the “p38 MAPK activation in neutrophils” value [4] was “activation of p38 MAPK”. The serum half-life ([5]; after substitution of isoleucine for leucine at residue 79, no method or species printed) was > 1.5 h, the water solubility ([5]; after substitution of isoleucine for leucine at residue 79, relative to natural sequence) was “increased” and the “p38 activity in cells transfected with dominant-negative TRAF2 (∆TRAF2)” value [6] was “but not in those transfected with ∆TRAF2”. For the same compound, the “p38 activity in cells transfected with wild-type TRAF2 or an empty vector” value [6] was “enhanced the activity of p38”.
With QIENVKGTEDSGTT [TNFRI198–211] the IC50 [7] was 50 µM.
For EDSGTT [TNFRI206–211], the IC50 [7] was 171 µM and the IC50 ([8]; TNF-RM (conditioned medium of Staphylococcus aureus-stimulated mononuclear leukocytes, 1:10 in HBSS) treated with peptide, n = 3, read-out: IC50, inhibition of neutrophil response to TNF-rich medium) was 216 µM.
With `C[S+]([O-])c1ccc(-c2nc(-c3ccncc3)c(-c3ccc(F)cc3)[nH]2)cc1` (stereo not drawn) [SB203580, reference compound] the “effect on TNF70–80-induced respiratory burst response” value ([2]; neutrophils pre-incubated with inhibitor for 10 min before TNF70–80) was “inhibited”.
In the case of “GEDTST [scrambled control of TNFRI206–211]”, the “binding to TNF, solid phase assay” value [9] is reported as “did not bind” and the “effect on TNF-induced CD11b expression in neutrophils” value [10] is reported as “Lack of effect”.
In the case of LKPGTT [∆HM4], the “effect on TNF70–80-stimulated CL production in human neutrophils” value ([2]; four experiments) is reported as “dose-dependent suppression”.
In the case of `C[C@@H](O)[C@H](NC(=O)[C@@H](NC(=O)CN)[C@@H](C)O)C(=O)O` [TNFRI209–211] (H-Gly-Thr-Thr-OH), the IC50 [7] is reported as 123 µM and the IC50 [8] is reported as 146 µM.
For etanercept, the “outcome in RRV-infected mice versus untreated RRV-infected mice” value [11] is listed as “decreased weight gain, higher viral titre in muscle, joints and blood, associated with a greater degree of tissue damage and inflammatory cell recruitment”.
With “GGDPGIVTH [scrambled peptide (GGDPGIVTH), control peptide of TNF70–80 (…)]” the “binding to immobilised TNFR1 (competition with biotinylated TNF70–80)” value [12] was “Lack of binding”.
